Results published in PMC8867573 (ACS Omega, 2022).
Read-outs that look alike come from different tables or passages of the source.

How the values were obtained:
[1] = target: T1, ScSLAC (small laccase, SLAC) (Streptomyces coelicolor, UniProt Q9XAL8); experiment: spectrophotometric oxidation, […] nm, Michaelis-Menten or substrate inhibition fit; settings: read-out: Pyrogallol; pH 8.5, 42 °C; 0.025-1 mM substrate
T1 sequence (Q9XAL8 34-343): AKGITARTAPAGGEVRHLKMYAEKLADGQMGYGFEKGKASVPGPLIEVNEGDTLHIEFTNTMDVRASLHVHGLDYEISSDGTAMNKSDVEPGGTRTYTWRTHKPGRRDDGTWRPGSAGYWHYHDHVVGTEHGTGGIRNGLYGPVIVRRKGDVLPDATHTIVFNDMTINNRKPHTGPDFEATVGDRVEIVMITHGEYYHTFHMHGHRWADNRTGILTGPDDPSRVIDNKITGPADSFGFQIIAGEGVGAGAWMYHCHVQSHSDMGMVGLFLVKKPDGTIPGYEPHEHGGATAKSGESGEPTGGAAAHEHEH

[2] = target: T1, ScSLAC (small laccase, SLAC); experiment: as above; assay type: biochemical; settings: read-out: DMP; pH 8.0, 42 °C; 0.25-15 mM substrate

Compound | Km [1] | Km [2]
Oc1cccc(O)c1O [Pyrogallol] | 200 ± 60 µM | –
COc1cccc(OC)c1O [DMP, 2,6-dimethoxyphenol] | – | 1100 ± 60 µM
